The record followed here is patent publication US7947726B2, “Non-steroidal ligands for the glucocorticoid receptor, and compositions thereof” (The Regents of the University of California, priority 2002, dated 2011).

Read-outs that look alike come from different tables or passages of the source.

The target of test [1] is T1, glucocorticoid receptor (GR) (Homo sapiens, UniProt P04150).
T1 construct: purchased Panvera Corp, Madison, Wis
T1 sequence (P04150 1-777): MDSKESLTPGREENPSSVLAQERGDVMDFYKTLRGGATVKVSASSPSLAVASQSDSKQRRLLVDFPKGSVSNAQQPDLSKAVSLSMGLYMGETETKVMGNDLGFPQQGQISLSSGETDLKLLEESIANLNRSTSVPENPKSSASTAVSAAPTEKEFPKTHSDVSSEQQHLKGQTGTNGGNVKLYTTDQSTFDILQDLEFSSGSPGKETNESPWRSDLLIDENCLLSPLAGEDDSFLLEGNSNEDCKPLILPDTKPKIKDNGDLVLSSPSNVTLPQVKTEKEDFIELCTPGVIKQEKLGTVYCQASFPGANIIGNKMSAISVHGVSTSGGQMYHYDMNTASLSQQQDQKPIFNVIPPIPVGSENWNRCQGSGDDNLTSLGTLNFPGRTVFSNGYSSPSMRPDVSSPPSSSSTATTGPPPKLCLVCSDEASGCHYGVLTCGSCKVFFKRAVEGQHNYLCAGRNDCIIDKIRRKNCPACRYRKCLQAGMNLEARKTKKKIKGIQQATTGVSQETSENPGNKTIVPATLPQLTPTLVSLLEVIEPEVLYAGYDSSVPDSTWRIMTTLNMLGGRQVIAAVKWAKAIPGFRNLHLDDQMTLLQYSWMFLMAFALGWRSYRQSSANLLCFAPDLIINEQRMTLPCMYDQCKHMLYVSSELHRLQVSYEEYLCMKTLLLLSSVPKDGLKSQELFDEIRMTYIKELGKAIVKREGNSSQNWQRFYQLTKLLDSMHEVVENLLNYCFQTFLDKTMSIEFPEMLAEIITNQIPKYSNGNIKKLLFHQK
Briefly: Glucocorticoid Receptor Competitor Assay Kit (Panvera) ligand binding. The following applies: for GR binding RBA (dex = 100): Table 3; for GR binding RBA (dex = 100) / GR Binding RBA (dexamethasone = 100): relative binding affinity, dexamethasone = 100; for GR Binding RBA (dexamethasone = 100): Table 1. From the text:
The Glucocorticoid Receptor Competitor Assay Kit (Panvera Corp, Madison, Wis.) was used for ligand binding studies. The recommended room temperature protocol was followed for all assayed ligands.

Test [2] deals with T2, GR (Homo sapiens, UniProt P04150).
T2 construct: expressed in transfected cells; host or cells: CV-1 cells, transient transfection (plasmid a gift of Keith Yamamoto, UCSF)
T2 sequence (P04150 1-777): T1 sequence (P04150 1-777)
The experiment in a line: GRE (TAT3-Luc) activation luciferase assay in CV-1 cells transfected with GR. It is filed as cell-based. As to the method:
Cells were plated into tissue culture treated, 96 well flat bottom plates (25,000 cells/well), and incubated for 12 h at 37° C. Cells were then transfected using the Lipofectamine PLUS transfection reagent (Gibco BRL). DNA-lipid complexes of 5 ng GR, 50 ng TAT3-Luc, 7.5 ng β-galactosidase, 1 μL-well PLUS reagent and 0.67 μL-well lipofectamine in 50 μL/well serum free media were added to cells and incubated for 4 h at 37° C. Complexes were removed and hormones diluted in 5% charcoal-stripped FBS were added to the cells, which were then incubated for 24 hours at 37° C. Media was removed and the cells were washed with 100 μL Ca^+2, Mg^+2 free phosphate buffered saline (PBS). Lysis was achieved by adding 50 μL of Passive Lysis Buffer (Promega Corp, Madison, Wis.) and shaking the plate for 15 min. 15 μL of this lysate was then used to assay β-galactosidase activity (β-galactosidase enzyme assay system, Promega Corp., recommended procedures followed). The Luciferase Assay System (Promega Corp.) was used to assay luciferase activity. 100 μL of luciferase assay reagent was added rapidly to the plate and luminescence was measured for 10 ms/well on an Analyst AD Detection System (LJL Biosystems, Sunnyvale, Calif.).

The subject of test [3] is Coll A. The experiment in a line: Coll A repression. It is filed as cell-based. The note with it: for Emax: read-out: Repression Coll A % max repression; for EC50: read-out: Repression Coll A pot (EC50).
Test [4] has as its target T3, GR (Rattus norvegicus, UniProt P06536).
T3 construct: expressed in transfected cells; gift of Keith Yamamoto
T3 sequence (P06536 1-795): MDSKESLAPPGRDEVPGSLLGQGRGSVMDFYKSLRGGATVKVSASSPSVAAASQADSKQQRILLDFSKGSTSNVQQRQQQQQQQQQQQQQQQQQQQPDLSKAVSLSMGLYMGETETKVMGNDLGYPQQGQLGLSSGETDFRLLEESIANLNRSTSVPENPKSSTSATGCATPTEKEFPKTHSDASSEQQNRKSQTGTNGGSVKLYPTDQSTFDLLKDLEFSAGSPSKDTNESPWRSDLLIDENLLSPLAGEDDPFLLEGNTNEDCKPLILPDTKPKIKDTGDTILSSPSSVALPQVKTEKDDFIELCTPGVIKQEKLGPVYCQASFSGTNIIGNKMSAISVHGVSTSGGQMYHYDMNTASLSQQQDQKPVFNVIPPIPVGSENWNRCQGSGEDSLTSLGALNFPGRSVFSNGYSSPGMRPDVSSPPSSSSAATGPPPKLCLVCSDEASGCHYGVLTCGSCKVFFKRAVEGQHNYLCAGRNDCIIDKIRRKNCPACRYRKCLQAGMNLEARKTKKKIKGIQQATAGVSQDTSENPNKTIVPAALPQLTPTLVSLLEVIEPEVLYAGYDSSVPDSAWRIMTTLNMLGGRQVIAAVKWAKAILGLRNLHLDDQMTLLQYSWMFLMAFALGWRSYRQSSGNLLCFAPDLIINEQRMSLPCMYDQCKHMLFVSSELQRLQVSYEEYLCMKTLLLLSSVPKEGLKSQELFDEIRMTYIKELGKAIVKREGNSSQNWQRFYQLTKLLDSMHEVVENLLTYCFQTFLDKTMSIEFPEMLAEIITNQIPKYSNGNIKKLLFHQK
Briefly: AP-1 repression luciferase assay in U2OS cells stably transfected with rat GR. It is filed as cell-based. The note with it: Table 5, TPA-stimulated U2OS cells; for EC50: read-out: Repression AP-1 pot (EC50); for Emax: U2OS, 12 h, read-out: Repression AP-1 % max repression. As to the method: For API repression assays, U2OS cells stably transfected with rat GR were grown in similar media as for CV-1 cells with the exception of the FBS concentration, which was 10% and the only antibiotic was […]. Cells were plated and transfected in a similar fashion, except for plasmids, which in this case were 50 ng/well AP1-Luc and 10 ng/well β-galactosidase. Post-transfection, cells were incubated with either 50 ng/mL TPA (Phorbol 12-myristate 13-acetate), or 50 ng/mL TPA and various hormone dilutions in 10% charcoal treated FBS media. The cells were incubated for 12 h, and the lysis, β-galactosidase assay, and luciferase assay were performed as previously described.

Where [5] appears, read: Table 4, read-out: GR pot (EC50).
Where [6] appears, read: read-out: IC50 in a GR binding assay.
The mark [7] stands for this setting: Table 2, read-out: GR Binding (IC50).

Turning to `CC12Cc3cnn(-c4ccc(F)cc4)c3C=C1CCCC2C(O)c1cc2ccccc2c2ccccc12` (centres unmarked) [Compound 259, [1-(4-Fluoro-phenyl)-4a-methyl-4,4a,5,6,7,8-hexahydro-1H-benzo[f]indazol-5-yl]-phenanthren-9-yl-methanol], in test [1], the “GR binding RBA (dex = 100)” value was 72. Also, the EC50 in test [2] (setting [5]) is greater than 5000 nM; in test [3] (Table 5), 783 nM. In addition, the Emax in test [3] (Table 5) was 73%.
`CC12Cc3cnn(-c4cccc(C#Cc5ccccc5)c4)c3C=C1CCCC2=O` (centres unmarked) [Compound 261, 4a-Methyl-1-(3-phenylethynyl-phenyl)-1,4,4a,6,7,8-hexahydro-benzo[f]indazol-5-one]: the IC50 in test [1] (setting [6]) was determined as 174 nM.
Regarding `Cc1cc(O)cc(C)c1CC1CCCC2=Cc3c(cnn3-c3ccc(F)cc3)CC21C` (centres unmarked) [Compound 230, 4-{[1-(4-Fluoro-phenyl)-4a-methyl-4,4a,5,6,7,8-hexahydro-1H-benzo[f]indazol-5-yl]-methyl}-3,5-dimethyl-phenol], the “GR Binding RBA (dexamethasone = 100)” value in test [1] came out at 22.
As to `Cc1cc(O)cc(C)c1C(=O)C1CCCC2=Cc3c(cnn3-c3ccc(F)cc3)CC21C` (centres unmarked) [Compound 228, 4-{[1-(4-Fluoro-phenyl)-4a-methyl-4,4a,5,6,7,8-hexahydro-1H-benzo[f]indazol-5-yl]-keto-methyl}-3,5-dimethyl-phenol], the “GR Binding RBA (dexamethasone = 100)” value in test [1] came out at 16.
`COc1cc(C(O)C2CCCC3=Cc4c(cnn4-c4ccc(F)cc4)CC32C)cc(OC)c1OC` (centres unmarked) [Compound 223, [1-(4-Fluoro-phenyl)-4a-methyl-4,4a,5,6,7,8-hexahydro-1H-benzo[f]indazol-5-yl]-(3,4,5-trimethoxyphenyl)-methanol]: the “GR binding RBA (dex = 100)” value in test [1] was 47. Moreover, the “GRE activation max fold activation” value in test [2] (Table 4, fold) came out at 32 ± 2. Moreover, the EC50 in test [2] (setting [5]) came to 143 ± 27 nM. Moreover, in test [4], the EC50 was determined as 6.7 nM and the Emax was determined as 74%.
On to `CC12Cc3cnn(-c4ccc(F)cc4)c3C=C1CCc1c2[nH]c2ccc(F)cc12` (centres unmarked) [Compound 267, 3-(4-fluoro-phenyl)-8-fluoro-11b-methyl-5,6,12-trihydro-indazolo[5,6-a]carbazole], for which the concentration for half-maximal inhibition (IC50) in test [1] (setting [7]) is 130 nM. Also, the “GRE Activation Max fold activation” value in test [2] (Table 2, fold) is on record as 18. Also, in test [3] (Table 2), the Emax was 75% and the EC50 was determined as 100 nM.
On to `COCOC(c1c(C)cc(O)cc1C)C1CCCC2=Cc3c(cnn3-c3ccc(F)cc3)CC21C` (centres unmarked) [Compound 232, 4-{[1-(4-Fluoro-phenyl)-4a-methyl-4,4a,5,6,7,8-hexahydro-1H-benzo[f]indazol-5-yl]-methoxymethoxy-methyl}-3,5-dimethyl-phenol], for which, in test [1], the “GR Binding RBA (dexamethasone = 100)” value is on record as 26. Moreover, in test [2] (Table 1, read-out: GR pot(EC50)), the EC50 turned out to be 82 nM.
For the compound `CC12Cc3cnn(-c4ccc(F)cc4)c3C=C1CCc1c2[nH]c2ccc(Br)cc12` (centres unmarked) [Compound 263, 3-(4-fluoro-phenyl)-8-bromo-11b-methyl-5,6,12-trihydro-indazolo[5,6-a]carbazole], the IC50 in test [1] (setting [7]) was found to be 708 nM.
Turning to `CC12Cc3cnn(-c4ccc(F)cc4)c3C=C1CCC(=Cc1c3ccccc3cc3ccccc13)C2=O` (centres unmarked) [Compound 269, 6-Anthracen-9-ylmethylene-1-(4-fluoro-phenyl)-4a-methyl-1,4,4a,6,7,8-hexahydro-benzo[f]indazol-5-one], the IC50 in test [1] (setting [7]) turned out to be 43 nM. For the same compound, the EC50 in test [2] (Table 2, read-out: GRE Activation GR pot (EC50)) is greater than 5000 nM; in test [3] (Table 2), greater than 5000 nM.
Regarding `CC12Cc3cnn(-c4ccc(F)cc4)c3C=C1CCCC2=O` (centres unmarked) [Compound 205, 1-(4-Fluoro-phenyl)-4a-methyl-1,4,4a,6,7,8-hexahydro-benzo[f]indazol-5-one], the concentration for half-maximal inhibition (IC50) in test [1] (setting [6]) stood at 436 nM.
For `Cc1cc(C(O)C2CCCC3=Cc4c(cnn4-c4ccc(F)cc4)CC32C)ccc1O` (centres unmarked) [Compound 235, 4-{[1-(4-Fluoro-phenyl)-4a-methyl-4,4a,5,6,7,8-hexahydro-1H-benzo[f]indazol-5-yl]-hydroxy-methyl}-2-methyl-phenol], the “GR binding RBA (dex = 100)” value in test [1] came to 110. Further, the “GRE activation max fold activation” value in test [2] (Table 4, fold) amounted to 76. Further, the EC50 in test [2] (setting [5]) turned out to be 81 nM; in test [4], 16.6 nM. Also, the Emax in test [4] was 74%.
On to `COc1ccc2[nH]c3c(c2c1)CCC1=Cc2c(cnn2-c2ccc(F)cc2)CC13C` (centres unmarked) [Compound 265, 3-(4-fluoro-phenyl)-8-methoxy-11b-methyl-5,6,12-trihydro-indazolo[5,6-a]carbazole], for which the IC50 in test [1] (setting [7]) was 239 nM.

One may read the EC50 as the concentration at which the effect is half-maximal. Broadly, the IC50 is the concentration at which inhibition is half-maximal.
